This note sets out measurements from patent publication US20220008409A1, “CANCER COMBINATION THERAPY USING QUINOLINE CARBOXAMIDE DERIVATIVE” (KABUSHIKI KAISHA YAKULT HONSHA, priority 2018, published 2022).

One assay relates to K1. Nature of the assay: Combination effect by median-effect method, WST-8 assay. Format: cell-based, Human. The settings on record: in combination with STX-1159, 72 hours. The source says:
(§1) NCI-H2228, NCI-H1975, SK-BR-3, Hep3B, MCF-7, Caov-3, A2058, K562 and SUP-B15 were purchased from American Type Culture Collection, SAS and HuH-7 were purchased from National Institutes of Biomedical Innovation, Health and Nutrition, and K1, FTC-133 and Ishikawa were purchased European Collection of Authenticated Cell Cultures. […] Fetal bovine serum (hereinafter, abbreviated as FBS) and MCDB 105 culture medium were purchased from Sigma Aldrich (Cat. Nos. 172012 and 117-500), and RMPI1640 culture medium, DMEM medium, Ham's F-12 medium, MEM medium and IMDM culture medium were purchased Thermo Fisher Scientific (Cat. Nos. A1049101, 11995-065, 11765-054, 11095-080 and 12440-053).
(§2) The agents were singly added one day after the cells were inoculated. […] The absorbance of water-soluble formazan generated by enzymatic activity of mitochondria in cells was measured at 450 nm using a microplate reader (Molecular Devices, Model: SpectraMax Plus). This was evaluated as the viable cell count to calculate a 50% cell growth inhibitory concentration (hereinafter, abbreviated as IC50). The reference dose of each agent was set based on IC50 (Table 3).
(§3) One day after the cells were inoculated, for single groups, STX-1159 and the agents were each added so as to be a final concentration which is ¼ times, ½ times, 1 time, 2 times or 4 times the reference dose, and for combination groups, STX-1159 and the agents were added so as to be a final concentration where STX-1159 and the agents combined were each ¼ times, ½ times, 1 time, 2 times or 4 times the reference dose. […] The fraction affected (hereinafter, abbreviated as fa) was calculated from the following expression:
(§4) fa=1−(viable cell count in agent exposure group)/(viable cell count in control group).
(§5) By a median-effect method using combination effect analyzing software CalcuSyn (HULINKS), the combination index (hereinafter, abbreviated as CI) was calculated from fa obtained when STX-1159 and the agents were exposed alone or in combination. Evaluation of the combination effect was based on grading by CI in Table 4. In calculation of CI, the average of the values from two or more experiments was employed.

The next assay has as its system FTC-133. The note with it: in combination with STX-1159, 72 hours.
Source text: as §1
(§6) The cells were inoculated on a 96-well plate to the density shown in Table 2, and were cultured under conditions of 5% CO2 and 37° C. The agents were singly added one day after the cells were inoculated. To the control group was added DMSO, so as to be a final concentration of 0.05%. Subsequently, the cells were cultured under conditions of 5% CO2 and 37° C. for the time shown in Table 2, and the number living cells was evaluated by WST-8 assay. That is, 10 μL of a WST-8 kit solution (Kishida Chemical Co., ltd, Cat. No. 260-96162) was added to each well, and the cells were cultured under conditions of 5% CO2 and 37° C. for 1 to 2 hours. The absorbance of water-soluble formazan generated by enzymatic activity of mitochondria in cells was measured at 450 nm using a microplate reader (Molecular Devices, Model: SpectraMax Plus). This was evaluated as the viable cell count to calculate a 50% cell growth inhibitory concentration (hereinafter, abbreviated as IC50).
(§7) The cells were inoculated on a 96-well plate so as to be the density shown in Table 2, and were cultured under conditions of 5% CO2 and 37° C. One day after the cells were inoculated, for single groups, STX-1159 and the agents were each added so as to be a final concentration which is ¼ times, ½ times, 1 time, 2 times or 4 times the reference dose, and for combination groups, STX-1159 and the agents were added so as to be a final concentration where STX-1159 and the agents combined were each ¼ times, ½ times, 1 time, 2 times or 4 times the reference dose. To the control group was added DMSO, so as to be a final concentration of 0.1%. Subsequently, the cells were cultured under conditions of 5% CO2 and 37° C. for the time shown in Table 2, and the number living cells was measured by WST-8 assay. The fraction affected (hereinafter, abbreviated as fa) was calculated from the following expression:
as §4, §5

A further assay concerns SAS. The settings on record: in combination with STX-1159, 48 hours.
Source text: as §1, §6, §7, §4, §5

The nature of assay [1]: Combination effect by median-effect method, summary over the cell lines of Example 1. The note with it: in combination with STX-1159; summary of Table 5. Format: cell-based. The procedure:
The fraction affected (hereinafter, abbreviated as fa) was calculated from the following expression: fa=1-(viable cell count in agent exposure group)/(viable cell count in control group). […] Evaluation of the combination effect was based on grading by CI in Table 4. In calculation of CI, the average of the values from two or more experiments was employed.

The subject of a further assay is K562. Nature of the assay: Combination effect by median-effect method, WST-8 assay. The note with it: in combination with STX-1159, 48 hours. Format: cell-based, Human.
Source text: as §1, §6, §7, §4, §5

Another assay deals with SUP-B15. Described as above. Format: cell-based. The settings on record: in combination with STX-1159, 72 hours.
Source text: as §1, §6
as §7, with “expression: […]” for “expression:”
By a median-effect method using combination effect analyzing software CalcuSyn (HULINKS), the combination index (hereinafter, abbreviated as CI) was calculated from fa obtained when STX-1159 and the agents were exposed alone or in combination. […]

The subject of another assay is Caov-3. The note with it: in combination with STX-1159, 72 hours.
Source text: as §1, §6, §7, §4, §5

In the next assay the test system is Ishikawa. The note with it: in combination with STX-1159, 72 hours.
Source text: as §1, §6, §7, §4, §5

A further assay relates to MCF-7. The note with it: in combination with STX-1159, 72 hours.
Source text: as §1, §6, §7, §4, §5

In another assay the test system is NCI-H2228. Put plainly: Combination effect by median-effect method, WST-8 assay. The settings on record: in combination with STX-1159, 72 hours. Format: cell-based, Human.
Source text: as §1, §2, §3, §4, §5

The target of a further assay is T1, phosphorylated STAT3 (Homo sapiens, UniProt P40763).
T1 construct: endogenous in cells; host or cells: NCI-H2228
T1 sequence (P40763 whole entry): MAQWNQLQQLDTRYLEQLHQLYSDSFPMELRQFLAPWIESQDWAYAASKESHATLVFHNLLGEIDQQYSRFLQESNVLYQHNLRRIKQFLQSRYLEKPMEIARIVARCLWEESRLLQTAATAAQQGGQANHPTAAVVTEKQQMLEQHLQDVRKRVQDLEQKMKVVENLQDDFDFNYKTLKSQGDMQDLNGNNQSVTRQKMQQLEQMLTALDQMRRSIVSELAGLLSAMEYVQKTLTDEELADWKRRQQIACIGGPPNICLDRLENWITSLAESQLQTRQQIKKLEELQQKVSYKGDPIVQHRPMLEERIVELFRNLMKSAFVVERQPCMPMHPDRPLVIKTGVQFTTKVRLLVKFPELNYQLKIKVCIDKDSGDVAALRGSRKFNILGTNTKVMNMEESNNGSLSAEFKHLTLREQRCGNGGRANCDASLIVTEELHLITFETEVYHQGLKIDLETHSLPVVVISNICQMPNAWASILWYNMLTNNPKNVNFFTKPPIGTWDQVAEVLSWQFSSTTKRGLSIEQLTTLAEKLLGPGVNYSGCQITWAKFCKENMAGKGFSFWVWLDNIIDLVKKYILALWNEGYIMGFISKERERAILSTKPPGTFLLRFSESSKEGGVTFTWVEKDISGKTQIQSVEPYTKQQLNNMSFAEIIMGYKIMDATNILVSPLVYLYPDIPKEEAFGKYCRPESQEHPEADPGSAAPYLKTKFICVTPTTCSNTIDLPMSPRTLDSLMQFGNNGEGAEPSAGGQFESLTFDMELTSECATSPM
Put plainly: Western blotting in NCI-H2228 cells. Format: cell-based. The note with it: 24 hours.

The test system of a further assay is c-myc. Nature of the assay: Western blotting in NCI-H2228 cells. Format: cell-based, Human. The note with it: 24 hours.
Another assay relates to Hep3B. Put plainly: Combination effect by median-effect method, WST-8 assay. Format: cell-based, Human. The settings on record: in combination with STX-1159, 72 hours.
Source text: as §1, §2, §3, §4, §5

For the next assay, the system named is HuH-7. The description is as above. Format: cell-based, Human. The settings on record: in combination with STX-1159, 72 hours.
Source text: as §1, §2, §3, §4, §5

In another assay the test system is SK-BR-3. The description is as above. Format: cell-based, Human. The note with it: in combination with STX-1159, 72 hours.
Source text: as §1, §6, §7, §4, §5

The next assay relates to survivin. Nature of the assay: Western blotting in NCI-H2228 cells. Format: cell-based, Human. The settings on record: agent alone, STX-1159 5 μM, 24 hours.
Another assay concerns NCI-H1975. Put plainly: Combination effect by median-effect method, WST-8 assay. Format: cell-based, Human. The settings on record: in combination with STX-1159, 72 hours.
Source text: as §1, §2, §3, §4, §5

The mark [2] stands for this setting: agent alone, STX-1159 5 μM, alectinib 0.01 or 0.1 μM.
[3] abbreviates: both agents in combination (STX-1159 5 μM, alectinib 0.01 or 0.1 μM) versus each single agent.

The structures appear in SMILES notation.

For the compound `CNC(=O)c1cc(Oc2ccc(NC(=O)Nc3ccc(Cl)c(C(F)(F)F)c3)cc2)ccn1` [Sorafenib], the CI in the assay on K1 was 0.77; in the assay on FTC-133 it was 0.85; with SAS, 0.56. The Combination effect entry was “Moderate synergetic effect (0.7 < CI ≤ 0.85)” with K1, “Light synergetic effect (0.85 < CI ≤ 0.9)” in the assay with FTC-133 and “Synergetic effect (0.3 < CI ≤ 0.7)” in the assay on SAS. For the same compound, the “combination effect by the median-effect method” value in assay [1] was “synergetic effect”.

On to `Cc1nc(Nc2ncc(C(=O)Nc3c(C)cccc3Cl)s2)cc(N2CCN(CCO)CC2)n1` [Dasatinib, dasatinib], for which the figures for the CI in the assay with K562 and in the assay with SUP-B15 were 0.78 and 0.71, respectively. Further, the Combination effect result in the assay with K562 and with SUP-B15 was “Moderate synergetic effect (0.7 < CI ≤ 0.85)” in each case.

On to `CO[C@H]1C[C@@H]2CC[C@@H](C)[C@@](O)(O2)C(=O)C(=O)N2CCCC[C@H]2C(=O)O[C@H]([C@H](C)C[C@@H]2CC[C@@H](OCCO)[C@H](OC)C2)CC(=O)[C@H](C)/C=C(\C)[C@@H](O)[C@@H](OC)C(=O)[C@H](C)C[C@H](C)/C=C/C=C/C=C/1C` [Everolimus, everolimus], for which the CI in the assay on Caov-3 turned out to be 0.90; in the assay on Ishikawa it was 0.89; in the assay on MCF-7, 0.73. In addition, the Combination effect entry in the assay with Caov-3 is recorded as “Light synergetic effect (0.85 < CI ≤ 0.9)”; with Ishikawa it was “Light synergetic effect (0.85 < CI ≤ 0.9)”; in the assay on MCF-7 it was “Moderate synergetic effect (0.7 < CI ≤ 0.85)”. The “combination effect by the median-effect method” value in [1] was “synergetic effect”.

As for `CCc1cc2c(cc1N1CCC(N3CCOCC3)CC1)C(C)(C)c1[nH]c3cc(C#N)ccc3c1C2=O` [Alectinib], the CI in the assay with NCI-H2228 was 0.57. Moreover, the Combination effect entry in the assay on NCI-H2228 is “Synergetic effect (0.3 < CI ≤ 0.7)”. For the same compound, the “amount of phosphorylated STAT3” value on phosphorylated STAT3 (setting [2]) is reported as “reduced”; on phosphorylated STAT3 (setting [3]), “more reduced”. For the same compound, the amount of c-myc result in the assay with c-myc (setting [2]) is listed as “reduced”; in the assay with c-myc (setting [3]) it was “more reduced”. In assay [1], the “combination effect by the median-effect method” value is “synergetic effect”.

Consider `COc1cc2nccc(Oc3ccc(NC(=O)NC4CC4)c(Cl)c3)c2cc1C(N)=O` [Lenvatinib, lenvatinib], for which, in the assay on Hep3B, the CI stood at 0.75 and the Combination effect entry is listed as “Moderate synergetic effect (0.7 < CI ≤ 0.85)”. Moreover, in the assay on HuH-7, the CI is listed as 0.85 and the Combination effect entry was “Moderate synergetic effect (0.7 < CI ≤ 0.85)”. In addition, the “combination effect by the median-effect method” value in assay [1] is “synergetic effect”.

For the compound `CS(=O)(=O)CCNCc1ccc(-c2ccc3ncnc(Nc4ccc(OCc5cccc(F)c5)c(Cl)c4)c3c2)o1` [Lapatinib, lapatinib], in the assay on SK-BR-3, the CI came to 0.88 and the Combination effect entry was “Light synergetic effect (0.85 < CI ≤ 0.9)”. The “combination effect by the median-effect method” value in assay [1] is “synergetic effect”.

For `O=C(Nc1nnc(-c2ccco2)o1)c1cc(-c2ccccc2)nc2ccc(OC(F)(F)F)cc12` [STX-1159, N-[5-(2-furyl)-1,3,4-oxadiazol-2-yl]-2-phenyl-6-tri fluoromethoxy-4-quinoline carboxamide], the “amount of phosphorylated STAT3” value on phosphorylated STAT3 (setting [2]) is reported as “reduced”. For the same compound, in the assay with survivin, the amount of survivin result was “reduced”. Moreover, the amount of c-myc result in the assay on c-myc (setting [2]) is given as “reduced”.

Take `Cc1ccc(NC(=O)c2ccc(CN3CCN(C)CC3)cc2)cc1Nc1nccc(-c2cccnc2)n1` [Imatinib]: the CI with K562 worked out at 0.83; in the assay on SUP-B15 it was 0.85. Moreover, the Combination effect result in the assay on K562 and in the assay with SUP-B15 was “Moderate synergetic effect (0.7 < CI ≤ 0.85)” in each case. Also, the “combination effect by the median-effect method” value in [1] is listed as “synergetic effect”.

As for `C=CC(=O)Nc1cc(Nc2nccc(-c3cn(C)c4ccccc34)n2)c(OC)cc1N(C)CCN(C)C` [Osimertinib, osimertinib], in the assay with NCI-H1975, the CI is 0.81 and the Combination effect result is on record as “Moderate synergetic effect (0.7 < CI ≤ 0.85)”. Besides, the “combination effect by the median-effect method” value in assay [1] is “synergetic effect”.
